From paper PMC12384813
Read-outs that look alike come from different tables or passages of the source.

What was measured:
[1] = Solubility in aqueous media; format: physicochemical; settings: needs 10% DMSO in saline to fully dissolve
[2] = Stability by mass spectrometry at physiological pH; format: physicochemical; settings: pH 7.0, over 72 h
U87 MG cells [3] = test: Efflux kinetics of ^64Cu-NOTA conjugates; format: cell-based, human; settings: Table S3
Procedure: (§1) U87 MG (1 × 10^5 per well) were seeded in corning 24-well plates and cultured in DMEM with 10% FBS at 37 °C. […] For uptake assay, cells were washed with PBS to collect surface-bound and internalized activity, and for internalization assay, glycine-HCl wash was performed to remove surface bound activity. Moreover, cells were harvested, counted, and radioactivity was measured using a gamma counter. Results were expressed as percentage of total activity (%) in counts per min (CPM)/10^6 cells. For efflux studies, U87 MG cells were incubated with the complexes for 1 h, then washed with PBS, and replaced with fresh medium. The retained activity was measured over 0 to 24 h after washing.

SVG p12 cells [4] = test: Cellular uptake of ^64Cu-NOTA conjugates; format: cell-based, human; settings: Table S1
U87 MG cells [5] = test: Internalization of ^64Cu-NOTA conjugates (glycine-HCl wash); format: cell-based, human; settings: Table S2
Procedure: as §1

SVG p12 cells [6] = test: Efflux kinetics of ^64Cu-NOTA conjugates; format: cell-based, human; settings: Table S3
[7] = system: SVG p12 normal glial cells
U87 MG cells [8] = test: Cellular uptake of ^64Cu-NOTA conjugates; format: cell-based, human; settings: Table S1
Procedure: as §1

U87 MG cells [9] = test: cells; format: cell-based, human
Procedure: In this procedure, U87 MG (2 × 10^4 cells per well) were seeded in BD falcon transparent 96-well plates and incubated for 24 h.

SVG p12 cells [10] = test: Internalization of ^64Cu-NOTA conjugates (glycine-HCl wash); format: cell-based, human; settings: Table S2
[11] = 0.5 h after 1 h incubation and wash

N=C(N)NCCC[C@@H]1NC(=O)[C@H](CCCCNC(=O)[C@H](CCCCNC(=O)c2cc(-c3ccccn3)nc(-c3ccccn3)c2)NC(=O)COCCOCCNC(=O)CN2CCN(CC(=O)O)CCN(CC(=O)O)CC2)NC(=O)[C@@H](Cc2ccccc2)NC(=O)[C@H](CC(=O)O)NC(=O)CNC1=O [^natCu-NOTA-TP-c(RGDfK), metal not drawn]
solubility in aqueous media [1]: limited solubility in aqueous media | release of copper or platinum (mass spectrometry) [2]: no detectable release of copper or platinum

N=C(N)NCCC[C@@H]1NC(=O)[C@H](CCCCNC(=O)CNC(=O)COCCOCCNC(=O)CN2CCN(CC(=O)O)CCN(CC(=O)O)CC2)NC(=O)[C@@H](Cc2ccccc2)NC(=O)[C@H](CC(=O)O)NC(=O)CNC1=O [[^64Cu]Cu-NOTA-c(RGDfK), metal not drawn]
Efflux (retained activity) 0.5h U87 MG (U87 MG cells [3]; [11]): 89.28 ± 6.24 % total activity (CPM) /106 cells | Efflux (retained activity) 1h U87 MG (U87 MG cells [3]; 1 h after wash): 85.47 ± 3.64 % total activity (CPM) /106 cells | Efflux (retained activity) 2h U87 MG (U87 MG cells [3]; 2 h after wash): 84.08 ± 7.95 % total activity (CPM) /106 cells | Efflux (retained activity) 4h U87 MG (U87 MG cells [3]; 4 h after wash): 80.93 ± 6.97 % total activity (CPM) /106 cells | Efflux (retained activity) 24h U87 MG (U87 MG cells [3]; 24 h after wash): 67.59 ± 2.23 % total activity (CPM) /106 cells | Uptake 1h SVG p12 (SVG p12 cells [4]; 1 h): 2.67 ± 0.20 % total activity (CPM) /106 cells | Uptake 2h SVG p12 (SVG p12 cells [4]; 2 h): 4.02 ± 0.41 % total activity (CPM) /106 cells | Uptake 4h SVG p12 (SVG p12 cells [4]; 4 h): 5.36 ± 0.94 % total activity (CPM) /106 cells | Uptake 24h SVG p12 (SVG p12 cells [4]; 24 h): 7.90 ± 0.41 % total activity (CPM) /106 cells | Uptake 48h SVG p12 (SVG p12 cells [4]; 48 h): 7.30 ± 0.44 % total activity (CPM) /106 cells | Internalized activity 1h U87 MG (U87 MG cells [5]; 1 h): 3.13 ± 0.31 % total activity (CPM) /106 cells | Internalized activity 2h U87 MG (U87 MG cells [5]; 2 h): 3.28 ± 0.26 % total activity (CPM) /106 cells | Internalized activity 4h U87 MG (U87 MG cells [5]; 4 h): 5.00 ± 0.58 % total activity (CPM) /106 cells | Internalized activity 24h U87 MG (U87 MG cells [5]; 24 h): 11.44 ± 0.62 % total activity (CPM) /106 cells | Internalized activity 48h U87 MG (U87 MG cells [5]; 48 h): 15.08 ± 0.38 % total activity (CPM) /106 cells | Efflux (retained activity) 0.5h SVG p12 (SVG p12 cells [6]; [11]): 94.55 ± 7.92 % total activity (CPM) /106 cells | Efflux (retained activity) 1h SVG p12 (SVG p12 cells [6]; 1 h after wash): 88.05 ± 6.90 % total activity (CPM) /106 cells | Efflux (retained activity) 2h SVG p12 (SVG p12 cells [6]; 2 h after wash): 83.93 ± 6.98 % total activity (CPM) /106 cells | Efflux (retained activity) 4h SVG p12 (SVG p12 cells [6]; 4 h after wash): 73.44 ± 3.92 % total activity (CPM) /106 cells | Efflux (retained activity) 24h SVG p12 (SVG p12 cells [6]; 24 h after wash): 17.62 ± 1.81 % total activity (CPM) /106 cells | EC50 [7]: 118 ± 8 nM | EC50 ([7]; 24 h): > 300 nM | EC50 ([7]; 48 h): > 200 nM | Uptake 1h U87 MG (U87 MG cells [8]; 1 h, 37 °C): 2.50 ±1.00 % total activity (CPM) /106 cells | Uptake 2h U87 MG (U87 MG cells [8]; 2 h): 3.23 ±0.61 % total activity (CPM) /106 cells | Uptake 4h U87 MG (U87 MG cells [8]; 4 h): 6.08 ± 0.60 % total activity (CPM) /106 cells | Uptake 24h U87 MG (U87 MG cells [8]; 24 h): 14.11 ± 0.95 % total activity (CPM) /106 cells | Uptake 48h U87 MG (U87 MG cells [8]; 48 h): 18.95 ± 0.45 % total activity (CPM) /106 cells | EC50 (U87 MG cells [9]; 24 h): 25 ± 7 nM | EC50 (U87 MG cells [9]; 48 h): 32 ± 9 nM | EC50 (U87 MG cells [9]; 72 h): 45 ± 2 nM | Internalized activity 1h SVG p12 (SVG p12 cells [10]; 1 h): 1.72 ±0.14 % total activity (CPM) /106 cells | Internalized activity 2h SVG p12 (SVG p12 cells [10]; 2 h): 1.90 ± 0.14 % total activity (CPM) /106 cells | Internalized activity 4h SVG p12 (SVG p12 cells [10]; 4 h): 3.05 ±0.48 % total activity (CPM) /106 cells | Internalized activity 24h SVG p12 (SVG p12 cells [10]; 24 h): 6.80 ± 0.32 % total activity (CPM) /106 cells | Internalized activity 48h SVG p12 (SVG p12 cells [10]; 48 h): 5.98 ± 0.36 % total activity (CPM) /106 cells
